The supplement of paper PMC13380429

What was measured:
Settings in all cases: 72 h
Calu-3 [1] = assay: cell viability relative to DMSO; higher = less toxic
HepG2 [2] = assay: as above
Calu-3 [3] = assay: relative viability EC50 (midpoint between 100% and the lowest measured viability); higher = less toxic
HepG2 [4] = assay: as above
Calu-3 [5] = assay: drug sensitivity score (DSS) for viability; higher = more toxic; extreme values may be limits of the assay
HepG2 [6] = assay: as above
Caco-2 [7] = assay: cell viability relative to DMSO; higher = less toxic
U2OS [8] = assay: as above
Vero E6 [9] = assay: as above
U2OS [10] = assay: relative viability EC50 (midpoint between 100% and the lowest measured viability); higher = less toxic
Vero E6 [11] = assay: as above
Caco-2 [12] = assay: drug sensitivity score (DSS) for viability; higher = more toxic; extreme values may be limits of the assay
U2OS [13] = assay: as above
Vero E6 [14] = assay: as above
Caco-2 [15] = assay: relative viability EC50 (midpoint between 100% and the lowest measured viability); higher = less toxic

Compound	cell viability (Calu-3 [1]; 1 nM)	cell viability (Calu-3 [1]; 10 nM)	cell viability (Calu-3 [1]; 100 nM)	cell viability (Calu-3 [1]; 1000 nM)	cell viability (Calu-3 [1]; 10000 nM)	cell viability (HepG2 [2]; 1 nM)	cell viability (HepG2 [2]; 10 nM)	cell viability (HepG2 [2]; 100 nM)	cell viability (HepG2 [2]; 1000 nM)	cell viability (HepG2 [2]; 10000 nM)	relative viability EC50 (Calu-3 [3])	relative viability EC50 (HepG2 [4])	drug sensitivity score (Calu-3 [5])	drug sensitivity score (HepG2 [6])	cell viability (Caco-2 [7]; 1 nM)	cell viability (Caco-2 [7]; 10 nM)	cell viability (Caco-2 [7]; 100 nM)	cell viability (Caco-2 [7]; 1000 nM)	cell viability (Caco-2 [7]; 10000 nM)	cell viability (U2OS [8]; 1 nM)	cell viability (U2OS [8]; 10 nM)	cell viability (U2OS [8]; 100 nM)	cell viability (U2OS [8]; 1000 nM)	cell viability (U2OS [8]; 10000 nM)	cell viability (Vero E6 [9]; 1 nM)	cell viability (Vero E6 [9]; 10 nM)	cell viability (Vero E6 [9]; 100 nM)	cell viability (Vero E6 [9]; 1000 nM)	cell viability (Vero E6 [9]; 10000 nM)	relative viability EC50 (U2OS [10])	relative viability EC50 (Vero E6 [11])	drug sensitivity score (Caco-2 [12])	drug sensitivity score (U2OS [13])	drug sensitivity score (Vero E6 [14])	relative viability EC50 (Caco-2 [15])
CC(C)(NS(=O)(=O)c1ccc(Oc2ccc(F)cc2)cc1)C(=O)NO	106%	96.3%	98.9%	97.9%	94.3%	110%	111%	98.3%	110%	80.7%	> 10 µM	> 10 µM	0	0.3	–	–	–	–	–	–	–	–	–	–	–	–	–	–	–	–	–	–	–	–	–
CC(C)(O)C(=O)N1CCN(c2ccc(C(F)(F)F)c(C3=C(c4c[nH]c5ccccc45)C(=O)NC3=O)c2)CC1	102%	93.2%	106%	117%	46.2%	101%	96.5%	103%	107%	7.5%	4.17 µM	3.57 µM	2.1	4.6	92.7%	95.5%	95.7%	105%	51.1%	99.6%	95.8%	103%	102%	35.6%	102%	97.7%	96.9%	104%	29.5%	3.35 µM	3.46 µM	2.2	3.3	3.6	–
CCCCn1ccc(N2CCC(c3ccccc3)CC2)c(Cl)c1=O	107%	96.7%	87%	99.3%	89.8%	99.2%	101%	86.7%	108%	78.9%	> 10 µM	> 10 µM	0	0.4	102%	103%	87.7%	111%	68.4%	100%	98.7%	100%	98.8%	99%	106%	106%	104%	106%	97.2%	> 10 µM	> 10 µM	1	0	0	–
CN(C)C1CCN(C(=O)c2ccc(NC(=O)Nc3ccc(-c4nc(N5CCOCC5)nc(N5CCOCC5)n4)cc3)cc2)CC1	105%	90.5%	87.2%	65.6%	35.5%	98.5%	108%	95.8%	100%	84.3%	0.635 µM	> 10 µM	8.3	0.3	93.8%	93.7%	102%	87.1%	66.7%	97.7%	97.8%	100%	92.1%	79.7%	94.2%	100%	89.3%	90.7%	107%	> 10 µM	> 10 µM	3.3	1.5	0	–
Cc1nc2sccn2c(=O)c1CCN1CCC(=C(c2ccccc2)c2ccc(F)cc2)CC1	–	–	–	–	–	104%	96.3%	100%	96.9%	95.8%	–	> 10 µM	–	0	95.3%	86.7%	97%	98.4%	97.2%	95.6%	97.6%	97.3%	98.7%	95%	102%	101%	107%	100%	94.5%	> 10 µM	> 10 µM	0	0	0	> 10 µM
Cn1c(=O)cnn(CCCCN2CCN(c3ncccn3)CC2)c1=O	111%	91.3%	102%	120%	103%	111%	114%	95.2%	116%	106%	> 10 µM	> 10 µM	0	0	–	–	–	–	–	103%	97.1%	103%	97.8%	103%	–	–	–	–	–	> 10 µM	–	–	0	–	–
Cc1nc(NC(=O)N2CCC[C@H]2C(N)=O)sc1-c1csc(C(C)(C)C)n1 [A66]	–	–	–	–	–	84.2%	96%	84%	89.8%	73.3%	–	> 10 µM	–	0	98.5%	87.5%	95.8%	92%	78.9%	103%	97.4%	98.6%	93%	88.7%	98.5%	96.5%	95.3%	101%	87.9%	> 10 µM	> 10 µM	1	0	0	> 10 µM
O=C(Nc1c[nH]nc1-c1nc2ccc(CN3CCOCC3)cc2[nH]1)NC1CC1 [AT-9283]	107%	96.9%	85.9%	65.4%	43.6%	96.6%	97.7%	82.4%	57.3%	5.8%	0.461 µM	0.93 µM	8	10.8	87.1%	102%	90.9%	90.7%	71.8%	98.2%	97.7%	80.6%	74.7%	1.1%	99.9%	93.1%	90.4%	86.7%	66.7%	1.66 µM	–	2	8.8	3.1	–
CCCn1c(=O)c2[nH]c(C3CCCC3)nc2n(CCC)c1=O [DPCPX]	–	–	–	–	–	102%	105%	99.8%	101%	91.5%	–	> 10 µM	–	0	105%	106%	106%	106%	93.3%	100%	102%	99.8%	96.6%	100%	106%	107%	98.2%	99.8%	89.1%	> 10 µM	> 10 µM	0	0	0	> 10 µM
CSc1nc2ccc3nc(NC(=O)C(c4ccccc4)c4ccccc4)sc3c2s1 [Gue-1654]	–	–	–	–	–	96.4%	106%	98.3%	102%	92.6%	–	> 10 µM	–	0	100%	100%	94.7%	93.6%	80.5%	100%	95.9%	98.8%	97.1%	98.2%	104%	107%	99.6%	97.8%	105%	> 10 µM	> 10 µM	0.7	0	0	> 10 µM
CCC(CC)Nc1nc(C)c(-c2ccc(OC(F)(F)F)cc2OC)nc1OC [NGD-98-2]	–	–	–	–	–	102%	98.8%	90.8%	100%	96.3%	–	> 10 µM	–	0	94.8%	92.9%	96.3%	90.9%	81.6%	98.7%	98.5%	95.1%	99.3%	97.7%	99.9%	104%	100%	99.1%	99.2%	> 10 µM	> 10 µM	0.6	0	0	> 10 µM
CCCS(=O)(=O)Nc1ccc(F)c(C(=O)c2c[nH]c3ncc(Cl)cc23)c1F [PLX4720]	93.4%	89.8%	100%	106%	106%	104%	94.6%	104%	90.9%	49.5%	> 10 µM	1.82 µM	0	4.2	96.8%	96.9%	93.6%	91%	73.3%	102%	95.8%	97.1%	100%	101%	106%	100%	100%	106%	82.5%	> 10 µM	> 10 µM	1.7	0	0.2	–
CC(=O)O[C@]1(C(C)=O)CC[C@H]2[C@@H]3CCC4=CC(=O)CCC4=C3[C@@H](c3ccc(N(C)C)cc3)C[C@@]21C [Ulipristal acetate]	105%	106%	97.1%	104%	110%	110%	110%	103%	97.9%	104%	> 10 µM	> 10 µM	0	0	94.7%	94.7%	98.3%	97.9%	67.8%	103%	103%	99.1%	99.6%	94.9%	104%	98.2%	99.3%	97%	98.3%	> 10 µM	> 10 µM	1.8	0	0	–
C[S+](CC[C@H](N)C(=O)O)C[C@H]1O[C@@H](n2cnc3c(N)ncnc32)[C@H](O)[C@@H]1O (stereo partly specified) [ademetionine]	106%	106%	105%	99.8%	96.3%	94.7%	105%	89.9%	91.4%	91.3%	> 10 µM	> 10 µM	0	0	–	–	–	–	–	100%	97.9%	98.5%	98%	106%	99.8%	104%	103%	108%	92.2%	> 10 µM	> 10 µM	–	0	0	–
COc1cc(Nc2ncc3c(n2)-c2ccc(Cl)cc2C(c2c(F)cccc2OC)=NC3)ccc1C(=O)O [alisertib]	106%	105%	98.1%	88.4%	78.8%	102%	98%	58.7%	66.6%	61.4%	> 10 µM	–	1.6	13.1	102%	90%	83%	87.9%	72.8%	102%	99.7%	81.5%	78.2%	58.6%	96.3%	103%	84.4%	82.7%	67%	–	–	3.5	5.7	4.1	–
CC(C)c1cc(C(C)C)c(CC(=O)NS(=O)(=O)Oc2c(C(C)C)cccc2C(C)C)c(C(C)C)c1 [avasimibe]	92.2%	104%	99.1%	98.8%	102%	102%	108%	106%	97.6%	79.4%	> 10 µM	> 10 µM	0	1	90.3%	96.3%	91%	106%	72.3%	97.6%	98.7%	95.4%	99.7%	92.3%	100%	94.8%	93.2%	94.4%	81%	> 10 µM	> 10 µM	0.8	0	0.6	–
